This data set is described as follows: Thermal stability on storage in sealed dry containers, residual Cefditoren pivoxyl by liquid chromatography. It counts as physicochemical. To be noted: sealed dry container; for Residual quantity (%) of Cefditoren pivoxyl upon storage at 60° C., Initial content (at 0 day): initial content assumed to be 100%. The source says: In order to test the thermal stability on storage of the new crystalline substance of Cefditoren pivoxyl according to this invention, in comparison with the known, amorphous form of Cefditoren pivoxyl, there were employed a sample of the crystalline Cefditoren pivoxyl which was produced in Example 1 given hereinafter, as well as a sample of the amorphous Cefditoren pivoxyl which was produced by admixing a solution of amorphous Cefditoren pivoxyl in methanol with an aqueous iso-propanol to precipitate an amorphous powder of this compound and separating and drying this powder under a reduced pressure. These samples were separately placed in sealed dry containers and were stored for 1 month, for 2 months and for 4 months at 60° C. and at 40° C., respectively. After these storages, the samples were analysed by a liquid chromatographic method and percentages of the residual quantity of Cefditoren pivoxyl remaining in the stored samples were evaluated from the area under the absorption peak which was shown in the chromatogramms obtained. It is assumed that the initial content of Cefditoren pivoxyl in the test samples was 100% at the starting of the storages.

These results are taken from patent publication US6441162B2, “Crystalline substance of cefditoren pivoxyl and the production of the same” (Meiji Seika Kaisha, Ltd., priority 1996, dated 2002).

In the case of `CO/N=C(\C(=O)NC1C(=O)N2C(C(=O)OCOC(=O)C(C)(C)C)=C(/C=C\c3scnc3C)CS[C@H]12)c1csc(N)n1` (some centres unmarked) [Amorphous substance, 7-[(Z)-2-(2-aminothiazol-4-yl)-2-methoxyiminoacetamido]-3-[(Z)-2-(4-methylthiazol-5-yl)ethenyl]-3-cephem-4-carboxylic acid pivaloyloxymethyl ester, reference compound], the “Residual quantity (%) of Cefditoren pivoxyl upon storage at 60° C., After 1 month” value is 93%; the “Residual quantity (%) of Cefditoren pivoxyl upon storage at 60° C., After 2 months” value (from here on “Residual quantity (%) … After 2 months”) is given as 88%; the “Residual quantity (%) of Cefditoren pivoxyl upon storage at 60° C., Initial content (at 0 day)” value worked out at 100%.
Take `CO/N=C(\C(=O)NC1C(=O)N2C(C(=O)OCOC(=O)C(C)(C)C)=C(/C=C\c3scnc3C)CS[C@H]12)c1csc(N)n1` (some centres unmarked) [Crystalline substance, 7-[(Z)-2-(2-aminothiazol-4-yl)-2-methoxyiminoacetamido]-3-[(Z)-2-(4-methylthiazol-5-yl)ethenyl]-3-cephem-4-carboxylic acid pivaloyloxymethyl ester]: the “Residual quantity (%) of Cefditoren pivoxyl upon storage at 60° C., After 1 month” value was determined as 99%; the “Residual quantity (%) … After 2 months” value is listed as 99%; the “Residual quantity (%) of Cefditoren pivoxyl upon storage at 60° C., Initial content (at 0 day)” value was found to be 100%. For the setting “40° C., 4 months”, the “Residual quantity of Cefditoren pivoxyl after the 4-month storage at 40° C.” value is given as 99%. Besides, for the setting “listed as crystalline substance of Cefditoren pivoxyl”, the “Residual quantity (%) … After 2 months” value was found to be 99%.
